One experiment has as its target T1, AURKA (Homo sapiens, UniProt O14965).
T1 construct: endogenous in cells; host or cells: Jurkat cells
T1 sequence (O14965 1-403): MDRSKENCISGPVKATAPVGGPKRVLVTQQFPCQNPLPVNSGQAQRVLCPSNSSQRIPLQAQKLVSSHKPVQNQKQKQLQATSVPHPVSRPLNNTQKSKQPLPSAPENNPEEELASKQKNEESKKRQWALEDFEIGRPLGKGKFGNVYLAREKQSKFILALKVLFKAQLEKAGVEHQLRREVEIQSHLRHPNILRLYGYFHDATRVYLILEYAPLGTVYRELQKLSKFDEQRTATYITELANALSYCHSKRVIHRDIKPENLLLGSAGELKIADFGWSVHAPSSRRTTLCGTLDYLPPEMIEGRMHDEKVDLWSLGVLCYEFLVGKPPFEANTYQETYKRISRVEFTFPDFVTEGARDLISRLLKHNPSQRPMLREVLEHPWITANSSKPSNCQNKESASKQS
Format: cell-based. The conditions noted are these: Jurkat cells, 24 h, Table 2. From the text: WB is a classical biochemical experimental method used to detect the abundance of a target protein in a sample of cells or biological tissue. It relies on specific antigen-antibody binding to detect protein signals from the sample processed by gel electrophoresis: the protein specifically binds to a primary antibody at an epitope; the primary antibody is then conjugated with a secondary antibody to amplify the signal cascade; the signal is read out by chemiluminescent or fluorescent detection. The intracellular protein content is ultimately characterized by the intensity of the optical signals. […] The DC50 value can be calculated by curve fitting of the protein WB exposure signals.
The experimental procedure is as follows: • 1. Seed Jurkat cells into a 12-well plate at 1×10^6 cells/500 µL/well. • 2. Mix the culture medium with the compound to a concentration that is twice the desired final concentration. […] Transfer the cell suspension to a centrifuge tube. Rinse the 12-well plate with PBS and then transfer the PBS from the plate to the same centrifuge tube. Centrifuge at 3000 rpm for 5 min at room temperature. Aspirate the supernatant using a vacuum pump. […] Lyse on ice for 20 min. • 4. Centrifuge the lysed sample at 13000 rpm for 20 min at 4°C. Mix the supernatant with 5× protein loading buffer. Boil at 100°C for 5 min and then cool. Store the denatured protein sample at -20°C. • 5. […] Run electrophoresis at 80 V for 20 min, and then at 120 V constant voltage for 60 min. • 6. Transfer the protein onto a nitrocellulose membrane in an ice bath at 250 mA constant current for 90 min. • 7. […] Incubate with a primary antibody overnight at 4°C. • 9. […] Incubate with a secondary antibody for 1-2 h at room temperature. • 10. […] Expose and image the membrane using a LICOR Odyssey DLx imager.

The next experiment deals with H82 cells. As to the kind of experiment: cells. Format: cell-based. The settings on record: Homo sapiens. The protocol:
CellTiter-Glo (CTG) is a rapid cell viability test method based on ATP detection. […] Adenosine triphosphate (ATP) participates in various enzymatic reactions in organisms and is an indicator of living cell metabolism. Its content directly reflects the number of living cells and cell status. During the experiment, equal volume of CTG reagent is added to the cultured cells to measure the luminescence value. The chemiluminescent signal value is proportional to the amount of ATP, thus reflecting the number of viable cells. Therefore, cell viability can be obtained by detecting the ATP content. Compounds that affect cell viability will inhibit cell viability in a concentration-dependent manner, allowing a curve to be fitted to obtain the IC50 value.
The experimental procedure is as follows: • 11. Place the cell suspension in a 15 mL centrifuge tube, centrifuge at 1000 rpm for 5 min at room temperature, discard the supernatant, and collect the cell pellet. • 12. Resuspend the cell pellet with preheated complete cell culture medium (RPMI1640+10%FBS+1%PS), and use a Countess® automated cell counter to detect cell viability and density. […] Transfer the compound solution to a 96-well plate seeded with cells (final concentration of DMSO 0.1%), and place in a cell incubator at 37°C, 5% CO2 for 6 days. • 15. […] Protect from light during the whole process. Perform optical signal readings using a SpectraMax i3x reader. • 16. Data analysis: Remaining activity (%) = 100% * (1 - ((LumDMSO - Lummedium) - Lumsample) / (LumDMSO - LumPBS/medium)). Use GraphPad Prism 9.0 software to draw an S-shaped dose-survival rate curve and calculate the IC50 value using a nonlinear regression model.

Setting [1] is: NCI-H82, H82 cells, 4000 cells/well, CellTiter-Glo, read-out: IC50 in H82 Cells.
Setting [2] is: NCI-H82, read-out: IC50 in H82 Cells.

Read-outs that look alike come from different tables or passages of the source.

For `O=C1CCN(c2ccc(N3CCC4(CC3)CC(NC(=O)c3ccc(Nc5ncc6c(n5)-c5ccncc5C(c5ccccc5F)=NC6)cc3)C4)nc2)C(=O)N1` [Compound A138], on AURKA, the “Percentage of AURKA Degradation Induced by 100 nM Compound in Jurkat Cells” value (“Percentage … by 100 nM Compound in Jurkat Cells” below) was “+++ (Degradation > 70%)” and the “Percentage of AURKA Degradation Induced by 1 µM Compound in Jurkat Cells” value (“Percentage … by 1 µM Compound in Jurkat Cells” for short) was “+++ (Degradation > 70%)”. Also, the IC50 (commonly the midpoint of a concentration-inhibition curve) with H82 cells (setting [1]) lay within 1 to 10 µM.
With `O=C1CCN(c2ccc(N3CCC4(CC3)CCN(C3CCN(c5ccc(Nc6ncc7c(n6)-c6ccc(Cl)cc6C(c6c(F)cccc6F)=NC7)cc5)CC3)CCO4)nc2)C(=O)N1` [Compound A355], at AURKA, the “Percentage … by 100 nM Compound in Jurkat Cells” value is listed as “+++ (Degradation > 70%)” and the “Percentage … by 1 µM Compound in Jurkat Cells” value was “+++ (Degradation > 70%)”. Also, in the experiment with H82 cells (setting [2]), the IC50 was below 1 µM.
In the case of `O=C1CCN(c2ccc(N3CCC(C4CCN(c5ccc(Nc6ncc7c(n6)-c6ccc(Cl)cc6C(c6c(F)cccc6F)=NC7)cc5)CC4)CC3)nc2)C(=O)N1` [Compound A271], at AURKA, the “Percentage … by 100 nM Compound in Jurkat Cells” value is “++ (30% < Degradation ≤ 70%)” and the “Percentage … by 1 µM Compound in Jurkat Cells” value is on record as “+++ (Degradation > 70%)”. For the same compound, the IC50 with H82 cells (setting [1]) is below 1 µM.
In the case of `O=C1CCN(c2ccc(N3CCC4(CC3)CC(N3CCN(c5ccc(Nc6ncc7c(n6)-c6ccc(Cl)cc6C(c6c(F)cccc6F)=NC7)cc5)CC3)CO4)nc2)C(=O)N1` (racemic) [Compound A340], on AURKA, the “Percentage … by 100 nM Compound in Jurkat Cells” value was “+++ (Degradation > 70%)” and the “Percentage … by 1 µM Compound in Jurkat Cells” value is “+++ (Degradation > 70%)”. Besides, the IC50 in the experiment on H82 cells (setting [2]) was below 1 µM.
In the case of `O=C1CCN(c2ccc(N3CCC(N4CCN(c5ccc(Nc6ncc7c(n6)-c6ccc(Cl)cc6C(c6c(F)cccc6F)=NC7)cc5)CC4)C(F)(F)C3)nc2)C(=O)N1` (stereo not drawn) [Compound A263], at AURKA, the “Percentage … by 100 nM Compound in Jurkat Cells” value is given as “+++ (Degradation > 70%)” and the “Percentage … by 1 µM Compound in Jurkat Cells” value is recorded as “+++ (Degradation > 70%)”. Also, the IC50 in the experiment on H82 cells (setting [2]) was below 1 µM.
On to `O=C1CCN(c2cccc(N3CCC(N4CC(c5cccc(Nc6ncc7c(n6)-c6ccc(Cl)cc6C(c6c(F)cccc6F)=NC7)c5)C4)C3)c2)C(=O)N1` (stereo not drawn) [Compound A170], for which, at AURKA, the “Percentage … by 100 nM Compound in Jurkat Cells” value is “+++ (Degradation > 70%)” and the “Percentage … by 1 µM Compound in Jurkat Cells” value is on record as “+++ (Degradation > 70%)”. The half-maximal inhibitory concentration (IC50) with H82 cells (setting [1]) is below 1 µM.
For the compound `O=C1CCN(c2ccc(N3CCC4(CC3)CC(N3CCN(C56CC(Nc7ncc8c(n7)-c7ccc(Cl)cc7C(c7nccs7)=NC8)(C5)C6)C(=O)C3)CO4)nc2)C(=O)N1` (stereo not drawn) [Compound A339], on AURKA, the “Percentage … by 100 nM Compound in Jurkat Cells” value was “+++ (Degradation > 70%)” and the “Percentage … by 1 µM Compound in Jurkat Cells” value is on record as “+++ (Degradation > 70%)”. The IC50 with H82 cells (setting [1]) is below 1 µM.
Regarding `O=C1CCN(c2ccc(N3CCN(CC4(O)CN(c5ccc(Nc6ncc7c(n6)-c6ccc(Cl)cc6C(c6c(F)cccc6F)=NC7)cc5)C4)CC3)nc2)C(=O)N1` [Compound A281], at AURKA, the “Percentage … by 100 nM Compound in Jurkat Cells” value is “+++ (Degradation > 70%)” and the “Percentage … by 1 µM Compound in Jurkat Cells” value is listed as “+++ (Degradation > 70%)”. Moreover, the IC50 in the experiment on H82 cells (setting [1]) was below 1 µM.
`O=C1CCN(c2cccc(N3CC(CN4CCOc5ccc(Nc6ncc7c(n6)-c6ccc(Cl)cc6C(c6c(F)cccc6F)=NC7)cc5C4)C3)c2)C(=O)N1` [Compound A237]: at AURKA, the “Percentage … by 100 nM Compound in Jurkat Cells” value is “+++ (Degradation > 70%)” and the “Percentage … by 1 µM Compound in Jurkat Cells” value was “+++ (Degradation > 70%)”. The IC50 with H82 cells (setting [1]) was below 1 µM.
In the case of `O=C1CCN(c2ccc(N3CCC(C4CCN(C(=O)C56CC(Nc7ncc8c(n7)-c7ccc(Cl)cc7C(c7c(F)cccc7F)=NC8)(C5)C6)CC4)CC3)nc2)C(=O)N1` [Compound A273], on AURKA, the “Percentage … by 100 nM Compound in Jurkat Cells” value was “+++ (Degradation > 70%)” and the “Percentage … by 1 µM Compound in Jurkat Cells” value was “+++ (Degradation > 70%)”. The IC50 in the experiment with H82 cells (setting [1]) was below 1 µM.
`O=C1CCN(c2ccc(N3CCC(N4CCN(c5ccc(Nc6ncc7c(n6)-c6ccc(Cl)cc6C(c6c(F)cccc6F)=NC7)cn5)CC4)CC3)nc2)C(=O)N1` [Compound A213]: on AURKA, the “Percentage … by 100 nM Compound in Jurkat Cells” value is recorded as “+++ (Degradation > 70%)” and the “Percentage … by 1 µM Compound in Jurkat Cells” value is “+++ (Degradation > 70%)”. Moreover, the IC50 with H82 cells (setting [1]) is below 1 µM.
`O=C1CCN(c2cccc(C3CN(CC#Cc4cccc(Nc5ncc6c(n5)-c5ccc(Cl)cc5C(c5c(F)cccc5F)=NC6)c4)C3)c2)C(=O)N1` [Compound A126]: on AURKA, the “Percentage … by 100 nM Compound in Jurkat Cells” value is on record as “+ (Degradation ≤ 30%)” and the “Percentage … by 1 µM Compound in Jurkat Cells” value is “+ (Degradation ≤ 30%)”. Further, the IC50 with H82 cells (setting [1]) was below 1 µM.
`O=C1CCN(c2ccc(N3CCN(CC4(F)CN(c5ccc(Nc6ncc7c(n6)-c6ccc(Cl)cc6C(c6c(F)cccc6F)=NC7)cc5)C4)CC3)nc2)C(=O)N1` [Compound A259]: on AURKA, the “Percentage … by 100 nM Compound in Jurkat Cells” value is listed as “+++ (Degradation > 70%)” and the “Percentage … by 1 µM Compound in Jurkat Cells” value is given as “+++ (Degradation > 70%)”. The IC50 in the experiment on H82 cells (setting [1]) is below 1 µM.
Consider `O=C1CCN(c2ccc(N3CCC(C(=O)N4CCN(C56CC(Nc7ncc8c(n7)-c7ccc(Cl)cc7C(c7c(F)cccc7F)=NC8)(C5)C6)C(=O)C4)CC3)nc2)C(=O)N1` [Compound A270], for which, on AURKA, the “Percentage … by 100 nM Compound in Jurkat Cells” value is “+++ (Degradation > 70%)” and the “Percentage … by 1 µM Compound in Jurkat Cells” value is “+++ (Degradation > 70%)”. In addition, the IC50 with H82 cells (setting [1]) was below 1 µM.
`O=C1CCN(c2ccc(N3CCN(C(=O)[C@@H]4CN(c5ccc(Nc6ncc7c(n6)-c6ccc(Cl)cc6C(c6c(F)cccc6F)=NC7)cc5)CCO4)CC3)nc2)C(=O)N1` [Compound A324]: on AURKA, the “Percentage … by 100 nM Compound in Jurkat Cells” value was “+++ (Degradation > 70%)” and the “Percentage … by 1 µM Compound in Jurkat Cells” value was “+++ (Degradation > 70%)”. Also, the half-maximal inhibitory concentration (IC50) in the experiment with H82 cells (setting [1]) was below 1 µM.
Take `Cn1nc(N2CCC(=O)NC2=O)c2cc(F)c(N3CCN(C4CN(c5cccc(Nc6ncc7c(n6)-c6ccc(Cl)cc6C(c6c(F)cccc6F)=NC7)c5)C4)CC3)cc21` [Compound A244]: at AURKA, the “Percentage … by 100 nM Compound in Jurkat Cells” value is given as “++ (30% < Degradation ≤ 70%)” and the “Percentage … by 1 µM Compound in Jurkat Cells” value was “+++ (Degradation > 70%)”. Besides, the IC50 in the experiment on H82 cells (setting [1]) is below 1 µM.
On to `N#Cc1cc(N2CCC(=O)NC2=O)ccc1N1CCN(C(=O)C2CCN(c3ccc(Nc4ncc5c(n4)-c4ccc(Cl)cc4C(c4c(F)cccc4F)=NC5)cc3)CC2)CC1` [Compound A296], for which, on AURKA, the “Percentage … by 100 nM Compound in Jurkat Cells” value was “+++ (Degradation > 70%)” and the “Percentage … by 1 µM Compound in Jurkat Cells” value is listed as “+++ (Degradation > 70%)”. Besides, in the experiment on H82 cells (setting [1]), the IC50 is below 1 µM.
Regarding `O=C1CCN(c2ccc(N3CCN(C(=O)C4CCN(C56CC(Nc7ncc8c(n7)-c7ccc(Cl)cc7C(c7c(F)cccc7F)=NC8)(C5)C6)C(=O)C4)CC3)nc2)C(=O)N1` (stereo not drawn) [Compound A284], on AURKA, the “Percentage … by 100 nM Compound in Jurkat Cells” value was “+++ (Degradation > 70%)” and the “Percentage … by 1 µM Compound in Jurkat Cells” value was “++ (30% < Degradation ≤ 70%)”. In addition, the IC50 in the experiment with H82 cells (setting [1]) was below 1 µM.

These data come from patent publication EP4818168A1, “FUSED RING COMPOUND, PHARMACEUTICAL COMPOSITION THEREOF AND USE THEREOF” (priority 2023, dated 2025).
